The values below are quoted from earlier work in PMC7544826 (Communications Biology, 2020).

What is called IC50 is the concentration needed to halve the response being measured.

This data set deals with Notum. Set-up: method as in PMID 31876313. The settings on record: read-out: IC50, Notum inhibition (reported potency); cited from earlier work.

With `COc1ccc2[nH]cc(CCNC(C)=O)c2c1` [melatonin], the IC50 is 75 µM.
